Drawing on BindingDB's records for doi:10.7270/Q2M32T6M (Vanderbilt Screening Center for GPCRs, Ion Channels and …, 2009), this text covers EC50 for 39 molecules.

For the first experiment, the target named is T1, Solute carrier family 12 member 5 (Homo sapiens, UniProt Q9H2X9).
T1 sequence (Q9H2X9 whole entry): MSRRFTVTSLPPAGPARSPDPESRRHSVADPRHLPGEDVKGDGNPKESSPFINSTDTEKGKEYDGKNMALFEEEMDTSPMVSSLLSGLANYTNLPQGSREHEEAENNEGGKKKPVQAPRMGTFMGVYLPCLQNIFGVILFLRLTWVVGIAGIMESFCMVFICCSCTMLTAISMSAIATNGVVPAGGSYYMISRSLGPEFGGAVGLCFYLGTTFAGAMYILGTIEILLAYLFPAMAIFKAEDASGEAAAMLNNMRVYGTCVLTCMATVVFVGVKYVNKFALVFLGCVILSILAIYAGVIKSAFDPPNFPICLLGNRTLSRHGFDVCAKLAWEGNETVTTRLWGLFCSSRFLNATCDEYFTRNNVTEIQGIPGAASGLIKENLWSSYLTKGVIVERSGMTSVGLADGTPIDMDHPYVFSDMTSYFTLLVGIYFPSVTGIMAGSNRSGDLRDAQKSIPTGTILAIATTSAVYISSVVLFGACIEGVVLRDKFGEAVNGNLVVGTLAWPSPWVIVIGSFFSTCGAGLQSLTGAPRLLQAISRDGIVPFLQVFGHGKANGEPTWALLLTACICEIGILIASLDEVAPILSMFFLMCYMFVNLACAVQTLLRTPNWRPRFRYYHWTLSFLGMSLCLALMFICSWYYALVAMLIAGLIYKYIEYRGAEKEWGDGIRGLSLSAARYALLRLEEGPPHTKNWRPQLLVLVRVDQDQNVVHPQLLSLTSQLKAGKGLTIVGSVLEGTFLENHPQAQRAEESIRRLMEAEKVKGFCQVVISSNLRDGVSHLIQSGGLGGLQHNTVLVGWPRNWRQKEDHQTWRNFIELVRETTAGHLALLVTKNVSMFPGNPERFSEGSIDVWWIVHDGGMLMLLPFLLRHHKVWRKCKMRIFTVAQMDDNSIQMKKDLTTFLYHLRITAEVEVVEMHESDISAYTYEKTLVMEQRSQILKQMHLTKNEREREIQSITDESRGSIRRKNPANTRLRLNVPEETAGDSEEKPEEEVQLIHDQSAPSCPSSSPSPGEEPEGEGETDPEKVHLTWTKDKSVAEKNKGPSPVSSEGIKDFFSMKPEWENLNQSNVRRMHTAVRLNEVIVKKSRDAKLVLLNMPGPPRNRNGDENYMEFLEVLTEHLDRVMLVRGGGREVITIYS
The experiment is described as follows: concentration-response of KCC2 transport modulators – cell-based, HEK293 KCC2, FluoZin-2 fluorescence, dose response (AID 1736).
Settings: not given
The EC50 is the concentration giving half of the maximal effect. Read a low EC50 as an effect from little substance. In turn, `O=C(NCC1CCCO1)C(c1cccs1)N(C(=O)c1ccc(-c2ccccc2)[nH]1)C1CCCC1` (centres undefined) [5-Phenyl-1H-pyrrole-2-carboxylic acid cyclopentyl-{[(tetrahydro-furan-2-ylmethyl)-carbamoyl]-thiophen-2-yl-methyl}-amide] yielded an EC50 of 7.73 µM.
Same read-out and setting: the value for `Cc1cccc(OCCc2nnc(N)s2)c1C` [5-[2-(2,3-Dimethyl-phenoxy)-ethyl]-[1,3,4]thiadiazol-2-ylamine] was 6.16 µM.
Same read-out and setting: as for `Sc1nnc(CCc2ccc(Cl)cc2)o1` [5-[2-(4-chlorophenyl)ethyl]-1,3,4-oxadiazole-2-thiol], the figure is 1.57 µM.
Same read-out and setting: as for `O=C(Nc1cccnc1)c1ccc(COc2cc(Cl)ccc2Cl)o1` [5-[(2,5-dichlorophenoxy)methyl]-N-(3-pyridinyl)-2-furancarboxamide], the figure is 3.88 µM; as for `O=C(NCc1ccc2c(c1)OCO2)c1ccc(COc2cc(Cl)ccc2Cl)o1` [5-[(2,5-dichlorophenoxy)methyl]-N-piperonyl-2-furamide], 7.14 µM; as for `O=C(NCc1cccnc1)c1ccc(COc2ccccc2Br)o1` [5-[(2-bromanylphenoxy)methyl]-N-(pyridin-3-ylmethyl)furan-2-carboxamide], 13.8 µM.
As to `O=C(Nc1cccnc1)c1ccc(COc2ccccc2Br)o1` [5-[(2-bromanylphenoxy)methyl]-N-pyridin-3-yl-furan-2-carboxamide], the EC50 is 2.34 µM.
Molecule `Sc1nnc(CNc2cccc(Cl)c2)o1` [5-[(3-chloroanilino)methyl]-3H-1,3,4-oxadiazole-2-thione] yielded an EC50 of 3.77 µM.
Same read-out and setting: as for `Sc1nnc(Nc2ccccc2)s1` [5-anilino-3H-1,3,4-thiadiazole-2-thione], the figure is 633 µM; as for `CCCn1c(N)c(C(=O)CSc2nnc(Cc3ccccc3)o2)c(=O)n(C)c1=O` [6-amino-3-methyl-5-[1-oxo-2-[[5-(phenylmethyl)-1,3,4-oxadiazol-2-yl]thio]ethyl]-1-propylpyrimidine-2,4-dione], 0.00466 µM; as for `CCc1ccc(Nc2nnc(SCc3cc(=O)n4ccsc4n3)s2)cc1` [7-[[5-(4-ethylanilino)-1,3,4-thiadiazol-2-yl]sulfanylmethyl]-[1,3]thiazolo[3,2-a]pyrimidin-5-one], 0.113 µM.
On to `O=c1c(-c2cnn(-c3ccccc3)c2)coc2cc(O)ccc12` [7-hydroxy-3-(1-phenyl-1H-pyrazol-4-yl)-4H-chromen-4-one], for which the concentration giving a half-maximal response (EC50) was 8.92 µM.
Still for that read-out and setting: the value for `Cc1ccc2[nH]c3c(N4CCN(Cc5ccccc5)CC4)ncnc3c2c1` [8-methyl-4-[4-(phenylmethyl)-1-piperazinyl]-5H-pyrimido[5,4-b]indole] was 3.25 µM; that for `O=C(C1CCN(c2nc3ccc(Br)cc3s2)CC1)N1CCC2(CC1)OCCO2` [8-{[1-(6-bromo-1,3-benzothiazol-2-yl)piperidin-4-yl]carbonyl}-1,4-dioxa-8-azaspiro[4.5]decane] was 5.25 µM.
Still for that read-out and setting: the value for `O=C(C1CCCN(S(=O)(=O)c2cccc3nonc23)C1)N1CCC(Cc2ccccc2)CC1` (centres undefined) [(1-benzofurazan-4-ylsulfonyl-3-piperidyl)-(4-benzylpiperidino)methanone] was 1460 µM.
On the same count and under the same terms, the value for `COc1ccc(NC(=S)NC(N)=Nc2nc(C)c3ccccc3n2)cc1` [(1E)-1-[amino-[(4-methyl-2-quinazolinyl)amino]methylidene]-3-(4-methoxyphenyl)thiourea] was 2.8 µM.
The molecule `COc1cc(C(=S)N2CCOCC2)cc(OC)c1OC(=O)Cc1ccc(F)cc1` [(2,6-dimethoxy-4-morpholin-4-ylcarbothioyl-phenyl) 2-(4-fluorophenyl)ethanoate] showed a half-maximal effective concentration (EC50) of 3.24 µM.
On the same count and under the same terms, the value for `COc1cc(C(=S)N2CCOCC2)cc(OC)c1OC(=O)Cc1ccccc1` [(2,6-dimethoxy-4-morpholin-4-ylcarbothioyl-phenyl) 2-phenylethanoate] was 0.408 µM; that for `c1ccc(-c2csc(N=NCc3ccco3)n2)cc1` [(2-furfurylideneamino)-(4-phenylthiazol-2-yl)amine] was 2.58 µM.
The molecule `COc1cc(C(=S)N2CCOCC2)ccc1OC(=O)Cc1ccc(F)cc1` [(2-methoxy-4-morpholin-4-ylcarbothioyl-phenyl) 2-(4-fluorophenyl)ethanoate] showed an EC50 of 8.68 µM.
`CC1Cc2ccccc2N1C(=O)c1ccc(N2CCCCC2)c([N+](=O)[O-])c1` (centres undefined) [(2-methyl-2,3-dihydroindol-1-yl)-(3-nitro-4-piperidin-1-yl-phenyl)methanone] gave an EC50 of 0.632 µM.
`CC1Cc2ccccc2N1C(=O)c1ccc(N2CCCC2)c([N+](=O)[O-])c1` (centres undefined) [(2-methyl-2,3-dihydroindol-1-yl)-(3-nitro-4-pyrrolidin-1-yl-phenyl)methanone] came in with an EC50 of 0.651 µM.
Still for that read-out and setting: the value for `COC(=O)[C@@H](NC(=O)O[C@@H]1C(=O)c2ccc(OC)cc2O[C@H]1c1cccc(C(F)(F)F)c1)C(C)C` [(2S)-2-[[(2S,3S)-4-keto-7-methoxy-2-[3-(trifluoromethyl)phenyl]chroman-3-yl]oxycarbonylamino]-3-methyl-butyric acid methyl ester] was 1.85 µM.
As to `N#CC(C(=O)c1cccc(F)c1)c1nc2ccccc2s1` (centres undefined) [(2Z)-2-(3H-1,3-benzothiazol-2-ylidene)-3-(3-fluorophenyl)-3-keto-propionitrile], the EC50 was 7.39 µM.
The molecule `Cc1cccc(NC(=S)NN=C2C(=O)N(CN3CCOCC3)c3ccccc32)c1C` [(3Z)-1-(morpholin-4-ylmethyl)-1H-indole-2,3-dione 3-[N-(2,3-dimethylphenyl)thiosemicarbazone]] had a concentration giving a half-maximal response (EC50) of 6.09 µM.
Same read-out and setting: the value for `O=C(OCn1ncc(Cl)c(Cl)c1=O)c1ccc(F)cc1` [(4,5-dichloro-6-oxopyridazin-1-yl)methyl 4-fluorobenzoate] was 3.32 µM; that for `CC(C)c1onc(C(=O)N2CCN(Cc3ccccc3)CC2)c1[N+](=O)[O-]` [(4-benzylpiperazin-1-yl)-(4-nitro-5-propan-2-yl-1,2-oxazol-3-yl)methanone] was 0.392 µM; that for `Cc1onc(C(=O)N2CCN(Cc3ccccc3)CC2)c1[N+](=O)[O-]` [(4-benzylpiperazin-1-yl)-(5-methyl-4-nitro-1,2-oxazol-3-yl)methanone] was 6.9 µM.
Still for that read-out and setting: the value for `O=C(c1ccc(-c2ccccc2)cc1)C1CCCN(Cc2ccncc2)C1` (centres undefined) [(4-phenylphenyl)-[1-(4-pyridylmethyl)-3-piperidyl]methanone] was 4.61 µM.
Same read-out and setting: as for `CCOC(=O)c1c(C)[nH]c(N=Nc2ccccc2)c1C` [(5Z)-2,4-dimethyl-5-(phenylhydrazinylidene)-3-pyrrolecarboxylic acid ethyl ester], the figure is 5.25 µM.
The molecule `CN1C(=O)/C(=C/c2ccccc2OCc2ccccc2)NC1=S` [(5Z)-3-methyl-5-[(2-phenylmethoxyphenyl)methylidene]-2-sulfanylidene-4-imidazolidinone] gave an EC50 of 1640 µM.
Take `Oc1ccccc1CN=Nc1nc2ccccc2o1` [(6E)-6-[(1,3-benzoxazol-2-ylhydrazo)methylidene]-1-cyclohexa-2,4-dienone]: the 50% effective concentration (EC50) worked out at 367 µM.
On the same count and under the same terms, as for `CCCCCN1C/C=C\C(c2ccc(OC)cc2)N(Cc2ccc(F)cc2)C(=O)C1` (centres undefined) [(6Z)-1-amyl-4-(4-fluorobenzyl)-5-(4-methoxyphenyl)-5,8-dihydro-2H-1,4-diazocin-3-one], the figure is 8.78 µM; as for `O=C(/C=C/c1ccco1)N1CCC(Cc2ccccc2)CC1` [(E)-1-(4-benzylpiperidin-1-yl)-3-(furan-2-yl)prop-2-en-1-one], 9.8 µM.

The same experiment, now with this note: inactive by the depositor's call.
As to `CC(C)CNC(=O)c1ccc(COc2ccc(Cl)cc2Cl)o1` [5-[(2,4-dichlorophenoxy)methyl]-N-(2-methylpropyl)-2-furancarboxamide], it took 10.5 µM to reach a half-maximal effect (EC50).
The same measure, in the same setting: the value for `CCc1ccc(-n2c(SCC(=O)c3ccc4c(c3)NC(=O)CO4)nc3ccccc3c2=O)cc1` [6-[2-[3-(4-ethylphenyl)-4-oxidanylidene-quinazolin-2-yl]sulfanylethanoyl]-4H-1,4-benzoxazin-3-one] was 51.8 µM; that for `COc1cccc(C2c3c(oc4ccc(F)cc4c3=O)C(=O)N2CCCN2CCOCC2)c1` (centres undefined) [7-fluoranyl-1-(3-methoxyphenyl)-2-(3-morpholin-4-ylpropyl)-1H-chromeno[2,3-c]pyrrole-3,9-dione] was 69.9 µM; that for `CCc1ccc(OCC(=O)NNC(=O)CSc2ncnc3sc(C)c(C)c23)cc1` [(4-Ethyl-phenoxy)-acetic acid N'-[2-(5,6-dimethyl-thieno[2,3-d]pyrimidin-4-ylsulfanyl)-acetyl]-hydrazide] was 1070 µM.
`COc1cc(OC)c(C(=O)/C=C/c2ccccc2)c(O)c1O` [(E)-1-(2,3-dihydroxy-4,6-dimethoxy-phenyl)-3-phenyl-prop-2-en-1-one] returned an EC50 of 486 µM.
